A short description of series [1]: Subchronic toxicokinetic study (28 day toxicity study), dogs. The format is in vivo.
Series [2] deals with endothelial cells induced by VEGF. In words: In vitro proliferation of endothelial cells induced by VEGF (HUV-EC-C assay). The format is cell-based, human. The protocol:
The following protocol may also be used to measure a compound's activity against PDGF-R, FGF-R, VEGF, aFGF or Flk-1/KDR, all of which are naturally expressed by HUV-EC cells.
1. Wash and trypsinize HUV-EC-C cells (human umbilical vein endothelial cells, (American Type Culture Collection; catalogue no. 1730 CRL). Wash with Dulbecco's phosphate-buffered saline (D-PBS; obtained from Gibco BRL; catalogue no. 14190-029) 2 times at about 1 ml/10 cm^2 of tissue culture flask. Trypsinize with 0.05% trypsin-EDTA in non-enzymatic cell dissociation solution (Sigma Chemical Company; catalogue no. C-1544). The 0.05% trypsin is made by diluting 0.25% trypsin/1 mM EDTA (Gibco; catalogue no. 25200-049) in the cell dissociation solution. Trypsinize with about 1 ml/25-30 cm^2 of tissue culture flask for about 5 minutes at 37° C. After cells have detached from the flask, add an equal volume of assay medium and transfer to a 50 ml sterile centrifuge tube (Fisher Scientific; catalogue no. 05-539-6).
2. Wash the cells with about 35 ml assay medium in the 50 ml sterile centrifuge tube by adding the assay medium, centrifuge for 10 minutes at approximately 200×g, aspirate the supernatant, and resuspend with 35 ml D-PBS. Repeat the wash two more times with D-PBS, resuspend the cells in about 1 ml assay medium/15 cm^2 of tissue culture flask. […]

Series [3] in a line: In vivo intravenous pharmacokinetics, mice.
A short description of series [4]: Subchronic toxicokinetic study (28 day toxicity study), rats. The format is in vivo.
Series [5] concerns FLK-1 receptor. Put plainly: Cellular-based assay of receptor phosphorylation following VEGF (FLK-1 ELISA). The format is cell-based. A general note: An ELISA detects its analyte on a solid surface through an enzyme-linked reagent.
The nature of series [6]: Phase 1 study pharmacokinetics in patients with advanced malignancies. The conditions noted are these: for half-life: plasma, intravenous.
Series [7] in a line: In vivo intravenous pharmacokinetics, rats.

Each structure is given as a SMILES string.

By half-life is commonly meant the time in which the quantity being followed falls by half. Read a high half-life as slow loss. As to `Cc1cc(C)c(/C=C2\C(=O)Nc3ccccc32)[nH]1` [3-[(2,4-dimethylpyrrol-5-yl)methylidenyl]-2-indolinone], the “accumulation in plasma upon repeated administration” value in series [1] and in series [4] was “did not accumulate in plasma” throughout. Moreover, in series [2] (Homo sapiens, Endothelial cell, read-out: IC50, inhibition of in vitro proliferation of endothelial cells induced by VEGF), the IC50 is roughly 70 nM. In series [2] (time-dependent increase in potency), the “exposure to drug after which detectable activity is first observed” value is 5 min. In addition, the “elimination of the parent compound from the circulation” value in series [3] and in series [7] (intravenous) was “rapid elimination” throughout. For the same compound, in series [5], the “receptor phosphorylation that follows the interaction of VEGF with its receptor” value was “inhibit the receptor phosphorylation”. In series [6] (after eight infusions, all patients), the “increase of the rate of clearance” value is on record as 50-300%. Also, the total distributive volume in series [6] (calculated by a one-compartment model) was 53.6 ± 11.3 L. For the same compound, in series [6] (doses 4.4-190 mg/m^2), the clearance versus dose result is “independent of dose”. Further, in series [6] (doses tested in humans to date), the “AUC and CMAX versus dose” value is on record as “increase linearly with dose”. The “individual clearance calculated based on BSA” value in series [6] (human, in vivo) is on record as 41.8±22.1 L/hour/m2. Moreover, the half-life was 5.8 ± 1.9 min in series [6] (human, alpha half-life, mean, doses 4.4-190 mg/m^2); 43.4 ± 21.9 min in series [6] (human, beta half-life or elimination phase, mean, doses 4.4-190 mg/m^2); 10 to 111 min in series [6] (human, beta half-life or elimination phase, range, doses 4.4-190 mg/m^2); roughly 60 min in series [6] (human, half-life in humans, doses 4.4-190 mg/m^2, preliminary). Moreover, the “elimination half-life versus dose” value in series [7] (intravenous 29.5-97.9 mg/m^2) was “linearly increases as the dose increased”. Further, in series [7] (intravenous 29.5-97.9 mg/m^2, with a 3-fold increase in dose), the “increase of AUC” value is listed as 10 fold.

Values taken from US20030073837A1, “3-HETEROARYLIDENYL-2-INDOLINONE COMPOUNDS FOR MODULATING PROTEIN KINASE ACTIVITY AND FOR USE IN CANCER CHEMOTHERAPY” (priority 1998, published 2003).
